# US20230303589A1, “CRYSTALLINE FORMS OF CFTR MODULATORS” (Vertex Pharmaceuticals Incorporated, priority 2020, published 2023)
# Tests used:
# F508del CFTR [1] = target: T1, F508del CFTR (Homo sapiens, UniProt P13569, DEL508-508); experiment: Ussing chamber chloride transport, F508del/MF HBE; type: cell-based; details: for chloride transport: treatment for 16 to 24 h
# T1 construct: HBE cells derived from 3 F508del homozygous donors; endogenous in cells; host or cells: HBE cells from 3 F508del homozygous donors
# Protocol: (§1) Ussing chamber studies were conducted to measure F508del CFTR-mediated chloride transport in HBE cells derived from 3 F508del homozygous donors and 5 F508del/MF donors (G542X, 3 donors; E585X, 1 donor; 3905InsT, 1 donor). As a positive control, maximally effective concentrations of N-(benzenesulfonyl)-6-[3-[2-[1-(trifluoromethyl)cyclopropyl] ethoxy] pyrazol-1-yl]-2-[ ( 4S)-2,2,4-trimethylpyrrolidin-1-yl] pyridine-3-carboxamide (see WO 2018/064632) and N-[(6-amino-2-pyridyl)sulfonyl]-6-(3-fluoro-5-isobutoxy-phenyl)-2-[(4S)-2,2,4-trimethylpyrrolidin-1-yl]pyridine-3-carboxamide (see WO 2016/057572) in combination with Compound II/Compound III were included in each experiment.
# F508del CFTR [2] = target: T1, F508del CFTR; experiment: Ussing chamber chloride transport, F508del/F508del HBE; type: cell-based; details: for chloride transport: treatment for 16 to 24 h
# Protocol: as §1
# [3] = Systemic exposure with increasing dose and repeated oral administration for 28 d in rats; type: in vivo
# [4] = Pharmacokinetics after a single oral administration in male dogs; type: in vivo; details: nominal dose 1 mg/kg, mean oral bioavailability
# [5] = Pharmacokinetics after a single oral administration in male monkeys; type: in vivo; details: nominal dose 1 mg/kg, mean oral bioavailability
# [6] = Safety analysis of an ongoing clinical study; type: in vivo
# Protocol: A safety analysis of an ongoing clinical study was performed for 37 subjects in Cohorts A1 to A5, 33 subjects in Cohort B, and 17 subjects in Cohort C, who were exposed to at least 1 dose of study drug (Compound I or placebo) as a monotherapy and as part of a triple combination with Compound II or Compound III.
# CFTR = CFTR (Homo sapiens, UniProt P13569); experiment: Membrane potential dye assay in human intestinal epithelial enteroid cells; type: cell-based; details: CFTR-mediated chloride transport; 18-24 h incubation; acute 10 µM forskolin and 300 nM Compound III
# Protocol: Base medium (ADF+++) consisted of Advanced DMEM/Ham’s F12, 2 mM Glutamax, 10 mM HEPES, […] penicillin/streptomycin.
# Intestinal enteroid maintenance medium (IEMM) consisted of ADF+++, 1x B27 supplement, 1x N2 supplement, 1.25 mM N-acetyl cysteine, 10 mM Nicotinamide, 50 ng/mL hEGF, 10 nM Gastrin, 1 µg/mL hR-spondin-1, 100 ng/mL hNoggin, TGF-b type 1 inhibitor A-83-01, 100 µg/mL Primocin, 10 µM P38 MAPK inhibitor SB202190.
# Bath 1 Buffer consisted of 1 mM MgC12, 160 mM NaCl, 4.5 mM KC1, 10 mM HEPES, 10 mM Glucose, 2 mM CaCl2.
# Chloride Free Buffer consisted of 1 mM Magnesium Gluconate, 2 mM Calcium Gluconate, 4.5 mM Potassium Gluconate, 160 mM Sodium Gluconate, 10 mM HEPES, 10 mM Glucose.
# Bath1 Dye Solution consisted of Bath 1 Buffer, 0.04% Pluronic F127, 20 µM Methyl Oxonol, 30 µM CaCCinh-A01, 30 µM Chicago Sky Blue. […]
# Enteroid cells were incubated with test compound in IEMM for 18-24 h at 37° C., 95% humidity and 5% CO2. […] Chloride transport was initiated by addition of Chloride Free Dye Stimulation Solution and the fluorescence signal was read for 15 min. […] Chloride transport was then expressed as a percentage of the chloride transport following treatment with 3 µM Compound I, 3 µM Compound II, and 300 nM acute Compound III triple combination control (% Activity).
# [7] = Pharmacokinetics after a single oral administration in male rats; type: in vivo; details: nominal dose 3 mg/kg, mean oral bioavailability
# [8] = Systemic exposure with increasing dose and repeated oral administration for 28 d in dogs; type: in vivo
# [9] = with a fixed combination of Compound II
# [10] = with a fixed concentration of Compound III or Compound II/Compound III
# T1 sequence (P13569 with tags, fused parts or gaps DEL508-508): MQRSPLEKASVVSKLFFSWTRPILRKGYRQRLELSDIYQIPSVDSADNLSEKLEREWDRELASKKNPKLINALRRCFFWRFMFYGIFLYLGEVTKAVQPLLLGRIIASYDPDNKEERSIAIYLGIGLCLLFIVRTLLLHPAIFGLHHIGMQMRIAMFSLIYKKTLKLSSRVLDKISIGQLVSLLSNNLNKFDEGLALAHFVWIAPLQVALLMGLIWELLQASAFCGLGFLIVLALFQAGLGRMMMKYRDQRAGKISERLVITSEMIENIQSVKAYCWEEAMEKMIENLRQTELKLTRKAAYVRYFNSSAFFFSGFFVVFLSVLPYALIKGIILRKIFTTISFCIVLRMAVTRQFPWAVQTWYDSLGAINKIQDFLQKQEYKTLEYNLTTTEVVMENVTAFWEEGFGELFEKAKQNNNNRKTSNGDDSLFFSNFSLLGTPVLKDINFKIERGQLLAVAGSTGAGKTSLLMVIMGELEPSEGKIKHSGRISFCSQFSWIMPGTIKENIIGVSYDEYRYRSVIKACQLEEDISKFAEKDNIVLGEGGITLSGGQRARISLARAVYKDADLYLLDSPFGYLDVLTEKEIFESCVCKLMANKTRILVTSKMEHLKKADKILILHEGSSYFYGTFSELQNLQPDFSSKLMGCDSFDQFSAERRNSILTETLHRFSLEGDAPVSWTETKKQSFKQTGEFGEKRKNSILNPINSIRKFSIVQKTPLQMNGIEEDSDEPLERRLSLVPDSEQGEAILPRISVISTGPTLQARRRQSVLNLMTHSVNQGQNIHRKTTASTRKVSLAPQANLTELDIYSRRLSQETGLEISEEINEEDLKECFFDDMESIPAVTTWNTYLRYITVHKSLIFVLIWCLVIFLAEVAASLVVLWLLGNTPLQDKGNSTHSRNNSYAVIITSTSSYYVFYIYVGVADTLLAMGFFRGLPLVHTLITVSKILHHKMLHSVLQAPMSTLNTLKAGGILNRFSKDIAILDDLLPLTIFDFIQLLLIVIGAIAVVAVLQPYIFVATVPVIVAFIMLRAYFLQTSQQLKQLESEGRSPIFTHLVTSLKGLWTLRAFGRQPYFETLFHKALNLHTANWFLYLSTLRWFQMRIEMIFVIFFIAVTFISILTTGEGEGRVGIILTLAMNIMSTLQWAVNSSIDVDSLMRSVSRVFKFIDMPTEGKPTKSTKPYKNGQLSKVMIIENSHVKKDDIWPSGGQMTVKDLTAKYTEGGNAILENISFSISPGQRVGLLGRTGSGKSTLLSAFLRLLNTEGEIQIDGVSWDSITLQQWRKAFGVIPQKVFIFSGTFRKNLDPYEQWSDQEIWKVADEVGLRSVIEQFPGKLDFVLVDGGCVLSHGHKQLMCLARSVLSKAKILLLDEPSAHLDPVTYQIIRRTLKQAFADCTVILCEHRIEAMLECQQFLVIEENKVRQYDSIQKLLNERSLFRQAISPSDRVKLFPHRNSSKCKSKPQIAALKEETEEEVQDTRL
# CFTR, sequence (P13569 whole entry): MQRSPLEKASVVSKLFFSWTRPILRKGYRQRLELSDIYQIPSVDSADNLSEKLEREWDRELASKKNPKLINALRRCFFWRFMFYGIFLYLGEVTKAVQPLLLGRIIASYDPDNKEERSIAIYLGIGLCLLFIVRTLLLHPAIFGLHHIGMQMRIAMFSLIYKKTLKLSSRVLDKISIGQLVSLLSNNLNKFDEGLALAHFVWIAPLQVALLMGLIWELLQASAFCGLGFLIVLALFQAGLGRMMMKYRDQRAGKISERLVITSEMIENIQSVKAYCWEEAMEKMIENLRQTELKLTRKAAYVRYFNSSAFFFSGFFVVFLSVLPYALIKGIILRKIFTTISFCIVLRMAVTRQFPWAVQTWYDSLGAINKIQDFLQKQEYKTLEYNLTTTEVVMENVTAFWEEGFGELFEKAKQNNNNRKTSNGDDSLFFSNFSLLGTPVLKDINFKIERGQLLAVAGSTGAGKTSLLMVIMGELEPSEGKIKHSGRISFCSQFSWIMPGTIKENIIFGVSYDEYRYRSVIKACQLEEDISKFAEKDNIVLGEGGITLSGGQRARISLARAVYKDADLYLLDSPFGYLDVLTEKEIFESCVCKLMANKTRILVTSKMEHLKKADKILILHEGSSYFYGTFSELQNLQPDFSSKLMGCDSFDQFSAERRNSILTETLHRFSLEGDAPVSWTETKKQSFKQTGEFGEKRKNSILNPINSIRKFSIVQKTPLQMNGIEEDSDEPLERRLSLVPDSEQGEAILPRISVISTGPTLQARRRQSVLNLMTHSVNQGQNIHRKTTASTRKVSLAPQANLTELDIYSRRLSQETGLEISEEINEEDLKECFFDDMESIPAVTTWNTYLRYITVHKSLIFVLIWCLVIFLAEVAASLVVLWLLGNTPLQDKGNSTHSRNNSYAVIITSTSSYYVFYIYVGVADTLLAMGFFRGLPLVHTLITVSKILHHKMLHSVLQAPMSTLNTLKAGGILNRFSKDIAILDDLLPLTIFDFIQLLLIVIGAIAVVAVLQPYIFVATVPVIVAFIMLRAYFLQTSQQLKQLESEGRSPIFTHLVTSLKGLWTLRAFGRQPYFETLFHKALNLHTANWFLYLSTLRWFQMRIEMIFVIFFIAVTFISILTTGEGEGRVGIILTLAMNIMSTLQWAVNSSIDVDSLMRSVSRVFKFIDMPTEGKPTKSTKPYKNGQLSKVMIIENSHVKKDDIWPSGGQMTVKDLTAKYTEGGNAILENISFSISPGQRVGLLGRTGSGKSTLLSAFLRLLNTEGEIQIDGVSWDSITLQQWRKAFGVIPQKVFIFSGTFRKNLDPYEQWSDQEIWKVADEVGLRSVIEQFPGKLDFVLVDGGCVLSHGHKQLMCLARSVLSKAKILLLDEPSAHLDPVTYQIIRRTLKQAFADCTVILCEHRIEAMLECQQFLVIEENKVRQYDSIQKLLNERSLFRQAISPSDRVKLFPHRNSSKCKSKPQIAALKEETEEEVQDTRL
SMILES,chloride transport (F508del CFTR [1]),chloride transport (F508del CFTR [2]),synergy analysis (F508del CFTR [1]; [9]),synergy analysis (F508del CFTR [1]; [10]),"Dosenormalized exposure, sex comparison [3]",systemic exposure as the dose increased [3],F [4],synergy analysis (F508del CFTR [2]; [9]),synergy analysis (F508del CFTR [2]; [10]),F [5],"safety and tolerability ([6]; monotherapy, up to a dose of 60 mg qd)",safety and tolerability ([6]; up to 20 mg qd in triple combination with Compound II and Compound III),EC50 (CFTR),F [7],systemic exposure as the dose increased [8]
"CC(C)(C)c1cc(C(C)(C)C)c(NC(=O)c2c[nH]c3ccccc3c2=O)cc1O [Compound III, N-[2,4-bis(1,1-dimethylethyl)-5-hydroxyphenyl]-1,4-dihydro-4-oxoquinoline-3-carboxamide, reference compound]",strongly potentiated chloride transport in the presence of Compound I or in combination with Compound I/Compound II,strongly potentiated chloride transport in the presence of Compound I or in combination with Compound I/Compound II,,,,,,,,,,,,,
"CC1(C)C[C@@H]2CCCNc3cccc(n3)S(=O)(=O)NC(=O)c3ccc(-n4ccc(OCCC5C6(CC6)C56CC6)n4)nc3N1C2 [Compound I, (14S)-8-[3-(2-{Dispiro[2.0.2.1]heptan-7-yl}ethoxy)-1H-pyrazol-1-yl]-12,12-dimethyl-2λ6-thia-3,9,11,18,23-pentaazatetracyclo[17.3.1.111,14.05,10]tetracosa-1(22),5,7,9,19(23),20-hexaene-2,2,4-trione]",modest increase,modest increase,modestly synergistic,highly synergistic,higher in female rats than male rats,increased in a more than doseproportional manner,49.7%,modestly synergistic,highly synergistic,12.9%,generally safe and well-tolerated,generally safe and well-tolerated,< 1 µM,76.9%,increased in a more than doseproportional manner
